pIC50, pKi: −log10 of the molar value.
Experiments:
[1] = tested on: c-Met in Snu5-AP1-Luc-Pest cells; test: Inhibition of c-Met activity in Snu5 gastric carcinoma cells (Snu5-AP1-Luc-Pest luciferase reporter); assay type: cell-based, human; conditions: Steady-Glo luminescence, 4-parameter fit
Text: Compounds of formula I were also screened for their ability to inhibit the Luciferase-induced signal in an engineered Snu5 cell line. […] The constitutively active c-Met activates cellular pathways (principally MAP kinase), resulting in AP-1-induced transcription of luciferase-PEST and translation into the final product, the activity of which is quantifiable as a chemiluminescent readout upon the addition of luciferin (Steady-Glo from Promega.). Residual luminescence is strongly correlated to the inhibition of c-Met. A stable cell line was obtained by selecting the new cell line (Snu5-AP1-Luc-Pest) with puromycin. The cells were grown in complete media [Iscove's media (Invitrogen) containing 10% fetal bovine serum (FBS, Hyclone) and penicillin/gentamycin (Invitrogen)]. Compounds of the invention were dissolved in DMSO to make 10 mM initial stock solutions. Serial dilutions in DMSO were then made and transferred to complete medium to make a 10× solution. The Snu5-AP1-Luc-Pest cells were counted and diluted to 200,000-cells/mL solution. The cells (90 μL) were added to each well in a 96-well black with clear bottom plate (Costar). Then 10 μL of the 10× compound solution was added to the cells in triplicate. The plates were incubated in a 37° C./5% CO2 incubator. After 6 hours, 50 μL of the Steady-Glo reagent (Promega) was added to each well and placed on a plate shaker for 5 minutes to ensure that the cells were completely lysed.

c-Met = c-Met (Homo sapiens, UniProt P08581); test: c-Met kinase inhibition assay (radiometric, 33P-ATP, polyE4Y); assay type: biochemical; conditions: 0.5 nM c-Met, 35 μM ATP, 0.5 mg/mL polyE4Y, 20 min; competitive tight-binding fit
Procedure: The compounds of the invention were screened for their ability to inhibit c-Met kinase using a standard radiometric assay. Briefly, in this kinase assay the transfer of the terminal ^33P-phosphate in ^33P-ATP to substrate polyE4Y is interrogated. […] Accordingly, compounds of the invention were dissolved in DMSO to make 10 mM initial stock solutions. Serial dilutions in DMSO were then made to obtain the final solutions for the assay. A 1.5 μL aliquot of DMSO or inhibitor in DMSO was added to each well, followed by the addition of ^33P-ATP, and finally the addition of c-Met and polyE4Y (obtained from Sigma). After 20 min, the reaction was quenched with 50 μL of 30% trichloroacetic acid (TCA) containing 4 mM ATP. The reaction mixture was transferred to the 0.66 mm GF filter plates (Corning) and washed three times with 5% TCA. Following the addition of 50 μL of Ultimate Gold™ high efficiency scintillant (Packard Bioscience), the samples were counted in a Packard TopCount NXT Microplate Scintillation and Luminescence Counter (Packard BioScience). The Ki values, shown in Table 2, were calculated using Microsoft Excel Solver macros to fit the data to the kinetic model for competitive tight-binding inhibition.

c-Met, sequence (P08581 25-1390): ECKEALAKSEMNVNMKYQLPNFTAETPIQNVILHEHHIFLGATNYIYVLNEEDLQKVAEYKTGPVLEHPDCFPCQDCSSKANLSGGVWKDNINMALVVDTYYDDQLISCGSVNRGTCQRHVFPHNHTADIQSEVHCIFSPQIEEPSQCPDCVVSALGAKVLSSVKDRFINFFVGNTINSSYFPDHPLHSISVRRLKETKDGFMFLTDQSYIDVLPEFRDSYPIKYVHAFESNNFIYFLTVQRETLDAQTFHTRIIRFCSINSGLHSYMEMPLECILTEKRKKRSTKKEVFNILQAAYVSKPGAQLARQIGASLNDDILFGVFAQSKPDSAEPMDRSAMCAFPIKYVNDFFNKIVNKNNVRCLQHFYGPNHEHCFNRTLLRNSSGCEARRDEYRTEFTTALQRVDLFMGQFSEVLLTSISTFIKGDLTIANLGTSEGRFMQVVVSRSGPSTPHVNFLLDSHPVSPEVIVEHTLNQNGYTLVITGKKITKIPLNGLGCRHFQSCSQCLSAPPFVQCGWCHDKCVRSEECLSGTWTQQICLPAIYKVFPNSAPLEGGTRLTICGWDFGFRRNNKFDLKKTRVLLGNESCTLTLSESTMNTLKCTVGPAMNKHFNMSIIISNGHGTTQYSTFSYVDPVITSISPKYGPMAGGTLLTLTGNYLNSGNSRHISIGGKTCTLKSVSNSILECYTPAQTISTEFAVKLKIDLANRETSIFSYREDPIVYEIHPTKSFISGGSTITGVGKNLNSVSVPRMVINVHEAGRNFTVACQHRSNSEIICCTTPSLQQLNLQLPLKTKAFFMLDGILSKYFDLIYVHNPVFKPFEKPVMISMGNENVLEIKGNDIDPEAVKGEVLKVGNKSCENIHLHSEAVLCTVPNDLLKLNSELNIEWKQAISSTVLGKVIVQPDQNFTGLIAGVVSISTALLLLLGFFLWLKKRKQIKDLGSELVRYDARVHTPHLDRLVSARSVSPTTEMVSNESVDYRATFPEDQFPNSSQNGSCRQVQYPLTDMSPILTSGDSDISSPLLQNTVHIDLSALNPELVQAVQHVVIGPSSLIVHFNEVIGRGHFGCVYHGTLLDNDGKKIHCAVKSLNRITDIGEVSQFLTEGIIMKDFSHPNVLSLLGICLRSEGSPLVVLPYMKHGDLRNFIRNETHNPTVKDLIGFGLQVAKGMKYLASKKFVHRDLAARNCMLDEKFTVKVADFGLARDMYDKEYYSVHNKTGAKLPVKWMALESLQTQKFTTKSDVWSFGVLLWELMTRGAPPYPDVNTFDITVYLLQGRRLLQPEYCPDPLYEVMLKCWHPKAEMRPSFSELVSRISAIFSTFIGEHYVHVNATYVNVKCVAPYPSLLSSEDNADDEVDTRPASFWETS

Question: How did the pIC50 ([1]; 6 hours) turn out when Cc1nn(C)cc1-c1nn2c(Cc3ccc4ncccc4c3)nnc2s1 [Compound 1] was run?
Answer: 8.70

Question: How did the pIC50 ([1]; 6 hours) turn out when CCc1nn(C)cc1-c1nn2c(Cc3ccc4ncccc4c3)nnc2s1 [Compound 2] was run?
Answer: 8.40

Question: How did the pIC50 ([1]; 6 hours) turn out when Cn1cc(-c2nn3c(Cc4ccc5ncccc5c4)nnc3s2)c(C(F)(F)F)n1 [Compound 3] was run?
Answer: 8.70

Question: With CC(C)c1nn(C)cc1-c1nn2c(Cc3ccc4ncccc4c3)nnc2s1 [Compound 4] as the compound, how does the pIC50 ([1]; 6 hours) read?
Answer: 8.52

Question: Which results are given for Cc1nn(C)cc1-c1nn2c([C@H](C)c3ccc4ncccc4c3)nnc2s1 [Compound 5]?
Answer: pKi (c-Met): 7.62; pIC50 ([1]; Homo sapiens, SNU-5, 6 hours): 8.60

Question: C[C@H](c1ccc2ncccc2c1)c1nnc2sc(-c3cn(C)nc3C(F)(F)F)nn12 [Compound 6] was tested. Which pKi (c-Met) did it give?
Answer: 8.15

Question: And the pIC50 ([1]; Homo sapiens, SNU-5, 6 hours)?
Answer: 8.70

Question: What does the source list for CCc1nn(C)cc1-c1nn2c([C@H](C)c3ccc4ncccc4c3)nnc2s1 [Compound 7]?
Answer: pKi (c-Met): 8.00; pIC50 ([1]; Homo sapiens, SNU-5, 6 hours): 8.22

Question: With C[C@H](c1ccc2ncccc2c1)c1nnc2sc(-c3cn(C)nc3C3CC3)nn12 [Compound 8] as the compound, how does the pKi (c-Met) read?
Answer: 7.62

Question: And the pIC50 ([1]; Homo sapiens, SNU-5, 6 hours)?
Answer: 8.52

Question: Cc1nn(C)cc1-c1nn2c([C@@H](C)c3ccc4ncccc4c3)nnc2s1 [Compound 9] was tested. Which pKi (c-Met) did it give?
Answer: 7.82

Question: And the pIC50 ([1]; Homo sapiens, SNU-5, 6 hours)?
Answer: 8.52

Question: How did the pKi (c-Met) turn out when CCc1nn(C)cc1-c1nn2c([C@@H](C)c3ccc4ncccc4c3)nnc2s1 [Compound 10] was run?
Answer: 8.30

Question: And the pIC50 ([1]; Homo sapiens, SNU-5, 6 hours)?
Answer: 8.21

Question: How did the pKi (c-Met) turn out when C[C@@H](c1ccc2ncccc2c1)c1nnc2sc(-c3cn(C)nc3C(F)(F)F)nn12 [Compound 11] was run?
Answer: 8.52

Question: What about the pIC50 ([1]; Homo sapiens, SNU-5, 6 hours) of the same compound?
Answer: 8.70

Question: With C[C@@H](c1ccc2ncccc2c1)c1nnc2sc(-c3cn(C)nc3C3CC3)nn12 [Compound 12] as the compound, how does the pKi (c-Met) read?
Answer: 8.15

Question: And the pIC50 ([1]; Homo sapiens, SNU-5, 6 hours)?
Answer: 8.15

Question: With Cc1nn(C)cc1-c1nn2c(C(C)(C)c3ccc4ncccc4c3)nnc2s1 [Compound 13] as the compound, how does the pKi (c-Met) read?
Answer: 6.44

Question: And the pIC50 ([1]; Homo sapiens, SNU-5, 6 hours)?
Answer: 6.60

Question: How did the pKi (c-Met) turn out when Cc1nn(C)cc1-c1nn2c(Cc3c(F)cc4ncccc4c3F)nnc2s1 [Compound 14] was run?
Answer: 8.15

Question: What about the pIC50 ([1]; Homo sapiens, SNU-5, 6 hours) of the same compound?
Answer: 8.70

Question: With CCc1nn(C)cc1-c1nn2c(Cc3c(F)cc4ncccc4c3F)nnc2s1 [Compound 15] as the compound, how does the pKi (c-Met) read?
Answer: 8.60

Question: And the pIC50 ([1]; Homo sapiens, SNU-5, 6 hours)?
Answer: 8.70

Question: CC(C)c1nn(C)cc1-c1nn2c(Cc3c(F)cc4ncccc4c3F)nnc2s1 [Compound 16] was tested. Which pKi (c-Met) did it give?
Answer: 8.62

Question: What about the pIC50 ([1]; Homo sapiens, SNU-5, 6 hours) of the same compound?
Answer: 8.52

Question: How did the pKi (c-Met) turn out when Cn1cc(-c2nn3c(Cc4c(F)cc5ncccc5c4F)nnc3s2)c(C(F)(F)F)n1 [Compound 17] was run?
Answer: 8.70

Question: And the pIC50 ([1]; Homo sapiens, SNU-5, 6 hours)?
Answer: 8.60

Question: Which results are given for Cc1nn(C)cc1-c1nn2c([C@@H](C)c3c(F)cc4ncccc4c3F)nnc2s1 [Compound 18]?
Answer: pKi (c-Met): 8.70; pIC50 ([1]; Homo sapiens, SNU-5, 6 hours): 9.30

Question: What does the source list for Cc1nn(C)cc1-c1nn2c([C@H](C)c3c(F)cc4ncccc4c3F)nnc2s1 [Compound 19]?
Answer: pKi (c-Met): 7.66; pIC50 ([1]; Homo sapiens, SNU-5, 6 hours): 8.30

Question: What does the source list for Cc1nn(C)cc1-c1nn2c(C(F)(F)c3ccc4ncccc4c3)nnc2s1 [Compound 20]?
Answer: pKi (c-Met): 7.85; pIC50 ([1]; Homo sapiens, SNU-5, 6 hours): 8.40

Question: Which results are given for CC(C)c1nn(C)cc1-c1nn2c(C(F)(F)c3ccc4ncccc4c3)nnc2s1 [Compound 21]?
Answer: pKi (c-Met): 8.40; pIC50 ([1]; Homo sapiens, SNU-5, 6 hours): 8.22

Question: Cn1cc(-c2nn3c(Cc4ccc5ncccc5c4)nnc3s2)cn1 [reference compound] was tested. Which pIC50 ([1]; Homo sapiens, SNU-5, 6 hours) did it give?
Answer: 7.07

Question: Which results are given for C[C@@H](c1ccc2ncccc2c1)c1nnc2sc(-c3cnn(C)c3)nn12 [reference compound]?
Answer: pKi (c-Met): 7.62; pIC50 ([1]; Homo sapiens, SNU-5, 6 hours): 7.82

Question: What does the source list for C[C@H](c1ccc2ncccc2c1)c1nnc2sc(-c3cnn(C)c3)nn12 [reference compound]?
Answer: pKi (c-Met): 6.61; pIC50 ([1]; Homo sapiens, SNU-5, 6 hours): 7.05

Question: What does the source list for Cn1cc(-c2nn3c(C(C)(C)c4ccc5ncccc5c4)nnc3s2)cn1 [reference compound]?
Answer: pKi (c-Met): 5.47; pIC50 ([1]; Homo sapiens, SNU-5, 6 hours): < 6.00

Question: With Cn1cc(-c2nn3c(Cc4c(F)cc5ncccc5c4F)nnc3s2)cn1 [reference compound] as the compound, how does the pKi (c-Met) read?
Answer: 7.80

Question: And the pIC50 ([1]; Homo sapiens, SNU-5, 6 hours)?
Answer: 7.92

Question: With C[C@@H](c1c(F)cc2ncccc2c1F)c1nnc2sc(-c3cnn(C)c3)nn12 [reference compound] as the compound, how does the pKi (c-Met) read?
Answer: 8.30

Question: What about the pIC50 ([1]; Homo sapiens, SNU-5, 6 hours) of the same compound?
Answer: 8.22

Question: Which results are given for C[C@H](c1c(F)cc2ncccc2c1F)c1nnc2sc(-c3cnn(C)c3)nn12 [reference compound]?
Answer: pKi (c-Met): 7.15; pIC50 ([1]; Homo sapiens, SNU-5, 6 hours): 7.22

Question: What does the source list for Cn1cc(-c2nn3c(C(F)(F)c4ccc5ncccc5c4)nnc3s2)cn1 [reference compound]?
Answer: pKi (c-Met): 7.44; pIC50 ([1]; Homo sapiens, SNU-5, 6 hours): 7.85

Reference: patent publication US8269013B2, “Substituted pyrazole inhibitors of c-Met protein kinase” (Vertex Pharmaceuticals Incorporated, priority 2009, dated 2012)
